Measured values taken from ChEMBL document CHEMBL3885861, “Open TG-GATES”.

Species on record: Rattus norvegicus
Test: Open TG-GATES - Regimen: Daily Repeat
Assay type: toxicity, organism-based, Sprague-Dawley
Set-up: regimen Daily Repeat, gender Male, age 6 weeks
Conditions: in vivo, po, 100 mg/kg, route gavage, dose level Middle; for APTT / Bas / Eos / Fbg / Hb / Ht / Lym / MCH / MCHC / MCV / Mono / Neu / PT / Plat / RBC / Ret / WBC: tissue Blood; for KIDNEY_L / KIDNEY_R / KIDNEY_TOTAL: tissue Kidney; for LIVER: tissue Liver; for A/G / ALP / ALT / AST / BUN / CRE / Ca / Cl / DBIL / GLC / IP / K / LDH / Na / PL / RALB / TBIL / TC / TG / TP / gamma-GTP: tissue Plasma

CCc1oc2ccccc2c1C(=O)c1cc(I)c(O)c(I)c1 [BENZIODARONE]
TERMINAL_BW (72 h, time 3 day): 247.4 g | APTT (72 h, time 3 day): 17.8 s | Bas (72 h, time 3 day): 0% | Eos (72 h, time 3 day): 0.8% | Fbg (72 h, time 3 day): 228.6 mg/dL | Hb (72 h, time 3 day): 13.9 g/dL | Ht (72 h, time 3 day): 41.6% | Lym (72 h, time 3 day): 80.4% | MCH (72 h, time 3 day): 21.3 pg | MCHC (72 h, time 3 day): 33.3% | MCV (72 h, time 3 day): 63.9 fL | Mono (72 h, time 3 day): 5.8% | Neu (72 h, time 3 day): 12.4% | PT (72 h, time 3 day): 11.4 s | Plat (72 h, time 3 day): 123.9 x10_4/uL | RBC (72 h, time 3 day): 651.4 x10_4/ul | Ret (72 h, time 3 day): 6.4% | WBC (72 h, time 3 day): 123 x10_2/uL | KIDNEY_L (72 h, time 3 day): 1.1 g | KIDNEY_R (72 h, time 3 day): 1.1 g | KIDNEY_TOTAL (72 h, time 3 day): 2.3 g | LIVER (72 h, time 3 day): 14.4 g | A/G (72 h, time 3 day): 1.9 | ALP (72 h, time 3 day): 1104 IU/L | ALT (72 h, time 3 day): 38.2 IU/L | AST (72 h, time 3 day): 61 IU/L | BUN (72 h, time 3 day): 17.6 mg/dL | CRE (72 h, time 3 day): 0.5 mg/dL | Ca (72 h, time 3 day): 10.8 mg/dL | Cl (72 h, time 3 day): 103.4 meq/L | DBIL (72 h, time 3 day): 0.038 mg/dL | GLC (72 h, time 3 day): 196 mg/dL | IP (72 h, time 3 day): 7.3 mg/dL | K (72 h, time 3 day): 4.4 meq/L | LDH (72 h, time 3 day): 112.6 IU/L | Na (72 h, time 3 day): 140.6 meq/L | PL (72 h, time 3 day): 148.4 mg/dL | RALB (72 h, time 3 day): 3.8 g/dL | TBIL (72 h, time 3 day): 0.3 mg/dL | TC (72 h, time 3 day): 79 mg/dL | TG (72 h, time 3 day): 66 mg/dL | TP (72 h, time 3 day): 5.9 g/dL | gamma-GTP (72 h, time 3 day): 2 IU/L | TERMINAL_BW ([…], time 7 day): 273.1 g | TERMINAL_BW ([…], time 14 day): 322 g | TERMINAL_BW ([…], time 28 day): 412 g | APTT ([…], time 7 day): 17.9 s | Bas ([…], time 7 day): 0% | Eos ([…], time 7 day): 1.2% | Fbg ([…], time 7 day): 241 mg/dL | Hb ([…], time 7 day): 14.1 g/dL | Ht ([…], time 7 day): 41.6% | Lym ([…], time 7 day): 78.6% | MCH ([…], time 7 day): 21.1 pg | MCHC ([…], time 7 day): 33.9% | MCV ([…], time 7 day): 62.5 fL | Mono ([…], time 7 day): 7.2% | Neu ([…], time 7 day): 13% | PT ([…], time 7 day): 11.7 s | Plat ([…], time 7 day): 139.6 x10_4/uL | RBC ([…], time 7 day): 666.6 x10_4/ul | Ret ([…], time 7 day): 3.8% | WBC ([…], time 7 day): 95.7 x10_2/uL | APTT ([…], time 14 day): 18.4 s | Bas ([…], time 14 day): 0% | Eos ([…], time 14 day): 0.8% | Fbg ([…], time 14 day): 229.4 mg/dL | Hb ([…], time 14 day): 14.3 g/dL | Ht ([…], time 14 day): 42.5% | Lym ([…], time 14 day): 85% | MCH ([…], time 14 day): 20.4 pg | MCHC ([…], time 14 day): 33.6% | MCV ([…], time 14 day): 60.7 fL | Mono ([…], time 14 day): 5.2% | Neu ([…], time 14 day): 9.2% | PT ([…], time 14 day): 11.8 s | Plat ([…], time 14 day): 122.8 x10_4/uL | RBC ([…], time 14 day): 700.6 x10_4/ul | Ret ([…], time 14 day): 2.5% | WBC ([…], time 14 day): 113.1 x10_2/uL | APTT ([…], time 28 day): 18.9 s | Bas ([…], time 28 day): 0% | Eos ([…], time 28 day): 1.4% | Fbg ([…], time 28 day): 225 mg/dL | Hb ([…], time 28 day): 15.2 g/dL | Ht ([…], time 28 day): 45.2% | Lym ([…], time 28 day): 81.8% | MCH ([…], time 28 day): 19.5 pg | MCHC ([…], time 28 day): 33.7% | MCV ([…], time 28 day): 58 fL | Mono ([…], time 28 day): 6% | Neu ([…], time 28 day): 11.2% | PT ([…], time 28 day): 11.8 s | Plat ([…], time 28 day): 114.5 x10_4/uL | RBC ([…], time 28 day): 778.6 x10_4/ul | Ret ([…], time 28 day): 3.4% | WBC ([…], time 28 day): 123.7 x10_2/uL | KIDNEY_L ([…], time 7 day): 1.2 g | KIDNEY_R ([…], time 7 day): 1.2 g | KIDNEY_TOTAL ([…], time 7 day): 2.4 g | KIDNEY_L ([…], time 14 day): 1.2 g | KIDNEY_R ([…], time 14 day): 1.3 g | KIDNEY_TOTAL ([…], time 14 day): 2.5 g | KIDNEY_L ([…], time 28 day): 1.4 g | KIDNEY_R ([…], time 28 day): 1.5 g | KIDNEY_TOTAL ([…], time 28 day): 2.9 g | LIVER ([…], time 7 day): 15.6 g | LIVER ([…], time 14 day): 16.9 g | LIVER ([…], time 28 day): 21.8 g | A/G ([…], time 7 day): 1.7 | ALP ([…], time 7 day): 1041.8 IU/L | ALT ([…], time 7 day): 35 IU/L | AST ([…], time 7 day): 65.2 IU/L | BUN ([…], time 7 day): 20.6 mg/dL | CRE ([…], time 7 day): 0.6 mg/dL | Ca ([…], time 7 day): 11 mg/dL | Cl ([…], time 7 day): 103 meq/L | DBIL ([…], time 7 day): 0.03 mg/dL | GLC ([…], time 7 day): 184 mg/dL | IP ([…], time 7 day): 7.8 mg/dL | K ([…], time 7 day): 4.5 meq/L | LDH ([…], time 7 day): 119.8 IU/L | Na ([…], time 7 day): 140.6 meq/L | PL ([…], time 7 day): 153.4 mg/dL | RALB ([…], time 7 day): 3.8 g/dL | TBIL ([…], time 7 day): 0.3 mg/dL | TC ([…], time 7 day): 78.8 mg/dL | TG ([…], time 7 day): 87.2 mg/dL | TP ([…], time 7 day): 6.1 g/dL | gamma-GTP ([…], time 7 day): 1.6 IU/L | A/G ([…], time 14 day): 2 | ALP ([…], time 14 day): 712.4 IU/L | ALT ([…], time 14 day): 34.2 IU/L | AST ([…], time 14 day): 61.6 IU/L | BUN ([…], time 14 day): 20.8 mg/dL | CRE ([…], time 14 day): 0.6 mg/dL | Ca ([…], time 14 day): 10.6 mg/dL | Cl ([…], time 14 day): 105.2 meq/L | DBIL ([…], time 14 day): 0.04 mg/dL | GLC ([…], time 14 day): 199 mg/dL | IP ([…], time 14 day): 6.9 mg/dL | K ([…], time 14 day): 4.4 meq/L | LDH ([…], time 14 day): 105 IU/L | Na ([…], time 14 day): 141 meq/L | PL ([…], time 14 day): 139.6 mg/dL | RALB ([…], time 14 day): 4 g/dL | TBIL ([…], time 14 day): 0.2 mg/dL | TC ([…], time 14 day): 73.8 mg/dL | TG ([…], time 14 day): 67.6 mg/dL | TP ([…], time 14 day): 6 g/dL | gamma-GTP ([…], time 14 day): 1.2 IU/L | A/G ([…], time 28 day): 1.7 | ALP ([…], time 28 day): 685.6 IU/L | ALT ([…], time 28 day): 37 IU/L | AST ([…], time 28 day): 59.2 IU/L | BUN ([…], time 28 day): 22 mg/dL | CRE ([…], time 28 day): 0.7 mg/dL | Ca ([…], time 28 day): 10.7 mg/dL | Cl ([…], time 28 day): 103.6 meq/L | DBIL ([…], time 28 day): 0.012 mg/dL | GLC ([…], time 28 day): 195.4 mg/dL | IP ([…], time 28 day): 6.4 mg/dL | K ([…], time 28 day): 4.4 meq/L | LDH ([…], time 28 day): 96.6 IU/L | Na ([…], time 28 day): 140.6 meq/L | PL ([…], time 28 day): 159.6 mg/dL | RALB ([…], time 28 day): 4.1 g/dL | TBIL ([…], time 28 day): 0.3 mg/dL | TC ([…], time 28 day): 86.4 mg/dL | TG ([…], time 28 day): 78.6 mg/dL | TP ([…], time 28 day): 6.5 g/dL | gamma-GTP ([…], time 28 day): 1.2 IU/L
